Values quoted from earlier work as cited in US20240398831A1, “COMPOSITIONS COMPRISING SMALL MOLECULE REGULATORS OF TUMOR IMMUNITY AND METHODS OF USING SAME” (Duke University, priority 2021, published 2024).

Tested on: melanoma
Conditions: human, in vivo; cited from earlier work

CC/C(=C(\c1ccccc1)c1ccc(OCCN(C)C)cc1)c1ccccc1 [tamoxifen]
results of studies in melanoma patients: equivocal
